Assay [1] addresses Cyclin-dependent kinase 2 (Homo sapiens, UniProt P24941).
For assay [2], the target named is Casein kinase I isoform gamma-1 (Homo sapiens) (UniProt Q9HCP0).
Assay [3] addresses Death-associated protein kinase 3 (Homo sapiens) (UniProt O43293).
Assay [4] addresses T1, Myotonin-protein kinase (Homo sapiens) (UniProt Q09013).
T1 sequence (whole entry): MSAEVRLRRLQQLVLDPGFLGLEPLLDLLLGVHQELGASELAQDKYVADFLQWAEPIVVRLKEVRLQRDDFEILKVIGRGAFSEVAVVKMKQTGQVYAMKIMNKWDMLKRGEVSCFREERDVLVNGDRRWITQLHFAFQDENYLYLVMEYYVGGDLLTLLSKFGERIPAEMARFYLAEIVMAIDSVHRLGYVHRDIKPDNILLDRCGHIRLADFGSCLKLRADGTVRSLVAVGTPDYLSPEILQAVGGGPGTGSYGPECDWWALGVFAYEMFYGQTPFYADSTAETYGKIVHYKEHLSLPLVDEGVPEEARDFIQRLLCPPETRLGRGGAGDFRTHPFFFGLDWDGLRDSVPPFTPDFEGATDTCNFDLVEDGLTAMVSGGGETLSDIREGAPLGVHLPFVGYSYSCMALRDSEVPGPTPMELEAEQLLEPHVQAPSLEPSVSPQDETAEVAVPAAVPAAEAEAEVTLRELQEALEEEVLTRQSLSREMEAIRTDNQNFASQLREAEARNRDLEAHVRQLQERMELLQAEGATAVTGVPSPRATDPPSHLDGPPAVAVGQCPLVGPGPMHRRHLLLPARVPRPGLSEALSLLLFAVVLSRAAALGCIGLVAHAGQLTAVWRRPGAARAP

Assay [5] deals with T2, Dual specificity mitogen-activated protein kinase kinase 6 (Homo sapiens) (UniProt P52564).
T2 sequence (whole entry): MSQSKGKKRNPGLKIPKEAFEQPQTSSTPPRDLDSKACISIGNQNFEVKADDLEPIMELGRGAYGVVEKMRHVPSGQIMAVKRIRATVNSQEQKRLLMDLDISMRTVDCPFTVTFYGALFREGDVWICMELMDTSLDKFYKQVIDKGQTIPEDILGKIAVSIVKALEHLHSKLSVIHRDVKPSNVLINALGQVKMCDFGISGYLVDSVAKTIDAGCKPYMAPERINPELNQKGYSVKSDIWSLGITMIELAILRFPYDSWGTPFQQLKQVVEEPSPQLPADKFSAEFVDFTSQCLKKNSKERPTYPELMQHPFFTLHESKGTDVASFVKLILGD

For assay [6], the target named is Mitogen-activated protein kinase 11 (Homo sapiens, UniProt Q15759).
Sequence of Mitogen-activated protein kinase 11 (Q15759 whole entry): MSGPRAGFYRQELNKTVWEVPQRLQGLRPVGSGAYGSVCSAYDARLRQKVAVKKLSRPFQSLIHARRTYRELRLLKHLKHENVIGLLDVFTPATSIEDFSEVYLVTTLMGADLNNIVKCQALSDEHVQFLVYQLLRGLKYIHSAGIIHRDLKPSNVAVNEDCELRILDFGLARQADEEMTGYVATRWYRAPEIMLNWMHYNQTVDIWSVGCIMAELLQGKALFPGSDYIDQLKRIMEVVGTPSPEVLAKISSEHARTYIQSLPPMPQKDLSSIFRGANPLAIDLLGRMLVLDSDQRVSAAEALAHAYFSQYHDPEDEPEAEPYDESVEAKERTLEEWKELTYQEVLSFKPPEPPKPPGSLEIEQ
In assay [7] the target is T3, Serine/threonine-protein kinase Nek2 (Homo sapiens) (UniProt P51955).
T3 sequence (whole entry): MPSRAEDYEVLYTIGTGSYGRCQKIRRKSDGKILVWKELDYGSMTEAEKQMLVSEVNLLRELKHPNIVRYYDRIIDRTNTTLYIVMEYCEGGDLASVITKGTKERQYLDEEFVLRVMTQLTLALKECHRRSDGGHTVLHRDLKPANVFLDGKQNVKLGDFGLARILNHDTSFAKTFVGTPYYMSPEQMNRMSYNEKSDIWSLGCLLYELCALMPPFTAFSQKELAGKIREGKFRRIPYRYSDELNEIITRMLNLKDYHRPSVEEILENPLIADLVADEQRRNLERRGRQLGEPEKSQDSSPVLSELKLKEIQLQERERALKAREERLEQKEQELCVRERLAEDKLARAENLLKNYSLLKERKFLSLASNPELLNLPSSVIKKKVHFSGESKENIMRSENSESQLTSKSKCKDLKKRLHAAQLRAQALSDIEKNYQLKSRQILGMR

Assay [8] has as its target Serine/threonine-protein kinase PAK 4 (Homo sapiens) (UniProt O96013).
The target in assay [9] is Serine/threonine-protein kinase pim-1 (Homo sapiens) (UniProt P11309).
Sequence of Serine/threonine-protein kinase pim-1 (Homo sapiens) (P11309 whole entry, looked up): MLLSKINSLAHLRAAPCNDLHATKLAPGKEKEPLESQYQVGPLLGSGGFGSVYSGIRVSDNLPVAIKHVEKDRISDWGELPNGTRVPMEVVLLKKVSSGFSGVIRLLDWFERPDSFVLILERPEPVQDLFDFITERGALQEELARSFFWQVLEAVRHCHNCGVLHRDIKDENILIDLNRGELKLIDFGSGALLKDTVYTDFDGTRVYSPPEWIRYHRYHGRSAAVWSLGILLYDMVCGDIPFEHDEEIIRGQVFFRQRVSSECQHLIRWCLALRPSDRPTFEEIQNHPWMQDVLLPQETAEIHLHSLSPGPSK
The target in assay [10] is Ribosomal protein S6 kinase alpha-3 (Homo sapiens) (UniProt P51812).
Sequence of Ribosomal protein S6 kinase alpha-3 (Homo sapiens) (P51812 whole entry): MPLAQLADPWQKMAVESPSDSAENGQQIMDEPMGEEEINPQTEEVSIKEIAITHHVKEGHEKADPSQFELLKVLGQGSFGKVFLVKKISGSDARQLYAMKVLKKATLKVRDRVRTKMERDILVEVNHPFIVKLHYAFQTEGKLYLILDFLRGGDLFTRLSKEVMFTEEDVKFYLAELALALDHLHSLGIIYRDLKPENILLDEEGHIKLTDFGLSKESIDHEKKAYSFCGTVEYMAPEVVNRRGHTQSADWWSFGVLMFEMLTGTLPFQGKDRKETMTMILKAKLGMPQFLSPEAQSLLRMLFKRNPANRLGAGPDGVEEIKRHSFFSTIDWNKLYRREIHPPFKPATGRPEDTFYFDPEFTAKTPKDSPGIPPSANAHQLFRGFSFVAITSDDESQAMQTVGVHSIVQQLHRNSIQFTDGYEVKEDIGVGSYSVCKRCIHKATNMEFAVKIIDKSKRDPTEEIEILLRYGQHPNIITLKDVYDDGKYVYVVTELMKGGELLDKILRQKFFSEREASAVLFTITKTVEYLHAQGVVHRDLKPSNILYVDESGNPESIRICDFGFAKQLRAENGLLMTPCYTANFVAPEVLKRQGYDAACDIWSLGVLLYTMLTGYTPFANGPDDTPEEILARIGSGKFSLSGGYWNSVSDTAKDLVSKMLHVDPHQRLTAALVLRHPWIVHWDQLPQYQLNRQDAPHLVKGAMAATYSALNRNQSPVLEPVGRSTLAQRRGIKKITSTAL
Assay [11] deals with T4, Serine/threonine-protein kinase 4 (Homo sapiens) (UniProt Q13043).
T4 sequence (whole entry): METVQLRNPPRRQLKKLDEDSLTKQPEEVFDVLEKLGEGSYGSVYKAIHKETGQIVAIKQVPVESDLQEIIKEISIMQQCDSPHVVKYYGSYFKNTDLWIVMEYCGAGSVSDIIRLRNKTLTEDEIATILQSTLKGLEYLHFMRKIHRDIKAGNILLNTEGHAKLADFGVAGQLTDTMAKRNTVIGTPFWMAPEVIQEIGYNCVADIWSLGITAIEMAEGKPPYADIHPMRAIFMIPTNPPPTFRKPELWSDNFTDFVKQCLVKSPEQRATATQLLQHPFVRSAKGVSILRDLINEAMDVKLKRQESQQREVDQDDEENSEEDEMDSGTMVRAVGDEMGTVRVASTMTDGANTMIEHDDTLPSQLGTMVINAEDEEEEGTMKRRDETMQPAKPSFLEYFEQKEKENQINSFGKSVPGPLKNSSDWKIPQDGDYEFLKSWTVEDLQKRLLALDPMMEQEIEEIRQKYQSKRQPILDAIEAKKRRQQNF

Sequence of Serine/threonine-protein kinase PAK 4 (Homo sapiens) (O96013 whole entry, looked up): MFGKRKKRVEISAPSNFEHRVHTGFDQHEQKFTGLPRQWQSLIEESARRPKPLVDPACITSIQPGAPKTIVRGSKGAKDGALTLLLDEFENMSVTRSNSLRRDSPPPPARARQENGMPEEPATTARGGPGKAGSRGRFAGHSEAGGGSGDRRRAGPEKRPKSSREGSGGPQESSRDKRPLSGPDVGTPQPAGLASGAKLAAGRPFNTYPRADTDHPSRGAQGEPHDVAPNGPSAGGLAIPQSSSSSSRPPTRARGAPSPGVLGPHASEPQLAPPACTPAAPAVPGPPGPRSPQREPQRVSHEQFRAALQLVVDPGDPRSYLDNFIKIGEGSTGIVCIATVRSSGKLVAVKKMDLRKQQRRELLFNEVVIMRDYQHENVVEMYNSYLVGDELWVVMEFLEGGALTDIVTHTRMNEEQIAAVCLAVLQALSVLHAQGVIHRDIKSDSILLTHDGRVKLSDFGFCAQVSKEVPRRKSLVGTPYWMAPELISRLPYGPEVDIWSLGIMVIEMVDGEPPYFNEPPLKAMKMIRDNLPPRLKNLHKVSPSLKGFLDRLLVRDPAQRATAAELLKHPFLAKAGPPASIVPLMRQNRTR
Sequence of Death-associated protein kinase 3 (Homo sapiens) (O43293 whole entry, looked up): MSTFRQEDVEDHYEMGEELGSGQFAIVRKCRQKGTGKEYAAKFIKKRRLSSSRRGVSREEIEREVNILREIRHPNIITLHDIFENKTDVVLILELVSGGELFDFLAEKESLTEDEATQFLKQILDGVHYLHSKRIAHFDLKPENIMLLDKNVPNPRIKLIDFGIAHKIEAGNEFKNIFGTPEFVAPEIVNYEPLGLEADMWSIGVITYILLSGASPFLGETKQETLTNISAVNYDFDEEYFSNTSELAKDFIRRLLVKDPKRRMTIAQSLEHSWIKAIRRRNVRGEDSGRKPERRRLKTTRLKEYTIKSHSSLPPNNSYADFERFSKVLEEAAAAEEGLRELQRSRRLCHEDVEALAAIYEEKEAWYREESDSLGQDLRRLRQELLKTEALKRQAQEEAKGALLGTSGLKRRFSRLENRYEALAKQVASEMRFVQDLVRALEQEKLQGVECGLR
Sequence of Casein kinase I isoform gamma-1 (Homo sapiens) (Q9HCP0 whole entry, looked up, canonical isoform): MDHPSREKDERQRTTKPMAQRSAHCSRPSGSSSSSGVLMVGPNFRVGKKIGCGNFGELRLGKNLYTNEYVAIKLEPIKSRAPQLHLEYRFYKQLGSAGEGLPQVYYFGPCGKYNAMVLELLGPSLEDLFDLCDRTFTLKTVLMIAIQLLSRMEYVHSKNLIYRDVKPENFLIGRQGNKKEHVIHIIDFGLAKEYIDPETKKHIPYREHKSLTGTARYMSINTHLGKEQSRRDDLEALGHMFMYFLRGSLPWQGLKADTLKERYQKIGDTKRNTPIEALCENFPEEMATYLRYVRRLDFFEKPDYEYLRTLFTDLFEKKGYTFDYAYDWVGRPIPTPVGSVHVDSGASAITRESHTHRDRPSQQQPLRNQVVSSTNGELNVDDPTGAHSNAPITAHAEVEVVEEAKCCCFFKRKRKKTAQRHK

A word on the ΔTm: it is the shift of the melting midpoint relative to a reference. Regarding `O=C1Nc2ccccc2/C1=C1/Nc2ccccc2/C1=N\O`, the ΔTm amounted to 9.1 °C in assay [1]; 2.4 °C in assay [2]; 2.7 °C in assay [3]; 2.8 °C in [4]; 6.4 °C in assay [5]; 2.4 °C in assay [6]. The ΔTm amounted to 2.8 °C in assay [7]; 3.4 °C in [8]; 4.5 °C in assay [9]; 4.1 °C in [10]; 8.4 °C in [11].
As to `Nc1cc2ncnc(Nc3cccc(Br)c3)c2cc1N`, the ΔTm in [1] worked out at 1.4 °C; in [2], 0.3 °C; in [3], 2.1 °C; in assay [4], 0.1 °C; in [5], 0.7 °C; in assay [6] it was 2.5 °C. The ΔTm in [7] is 3.3 °C; in assay [8], 0.6 °C; in [9] it was 3.4 °C; in [10] it was 0.5 °C; in assay [11] it was 2.7 °C.
Turning to `Nc1ncnc2c1c(I)cn2[C@@H]1O[C@H](CO)[C@@H](O)[C@H]1O`, the ΔTm in [1] is 2.9 °C; in [2], 2.5 °C; in assay [3], 2.9 °C; in assay [4], -0.3 °C; in assay [5], 2.7 °C; in assay [6] it was -0.4 °C. Also, the thermal shift (ΔTm) in [7] amounted to 0.4 °C; in assay [8] it was 1.1 °C; in assay [9] it was 1.1 °C; in [10], 1.4 °C; in assay [11], 4.7 °C.
Take `O=C1Cc2c([nH]c3ccc([N+](=O)[O-])cc23)-c2ccccc2N1`: the ΔTm is 4.4 °C in [1]; 1.4 °C in assay [2]; 1.6 °C in [3]; 1.9 °C in [4]; 1.2 °C in assay [5]; -0.1 °C in [6]. Also, the ΔTm was 2.2 °C in assay [7]; 2.1 °C in assay [8]; 3 °C in assay [9]; 0.2 °C in [10]; 5.1 °C in [11].
With `CC(C)c1cc(/C=C(\C#N)C(=O)NCCCc2ccccc2)cc(C(C)C)c1O`, the ΔTm in assay [1] was found to be 1.2 °C; in assay [2], 0.8 °C; in assay [3] it was 0.7 °C; in assay [4], 1 °C; in assay [5] it was 0.3 °C; in assay [6] it was 0.1 °C. The ΔTm was found to be 2.1 °C in [7]; 1.2 °C in assay [8]; 0.8 °C in [9]; 0.2 °C in assay [10]; 2.6 °C in [11].

The values are drawn from ChEMBL document CHEMBL1145498, “A systematic interaction map of validated kinase inhibitors with Ser/Thr kinases” (Proc Natl Acad Sci U S A, 2007).
